Patent EP4803080A1, “METHOD FOR TREATING LEUKEMIA” (Shenzhen TargetRx Co., Ltd., priority 2023, dated 2025)

Experiments:
[1] = system: accelerated phase (AP) chronic myeloid leukemia (CML); experiment: Phase I dose escalation and dose expansion clinical trial: efficacy in CML-AP subjects; assay type: in vivo, humans
Excerpt: This study is a single-arm, open-label, dose-escalation and dose-expansion Phase I clinical trial.
The dose-escalation phase of this trial consists of about 8 dose groups, with oral administration under fasting conditions. Subjects in all dose groups will receive a single dose on Day 1 (D1), followed by pharmacokinetic (PK) and tolerability observations. […] After entering the multiple-dose period, subjects in the first dose group will initially receive twice-daily (BID) dosing (if PK data from the single-dose period are available, the dosing frequency during the multiple-dose period may be adjusted based on the PK data). The dosing frequency for subjects in subsequent dose groups after entering the multiple-dose period will be determined based on available PK and tolerability data. Throughout the trial, dosing frequency for all subjects may be adjusted based on continuously updated safety and PK data.
A continuous reassessment method (CRM) based on the principle of the escalation with overdose control (EWOC) design will be used to recommend the next specific dose for each dose escalation, thereby completing dose escalation and determining the maximum tolerated dose (MTD). If both the investigator and sponsor believe that higher dose groups may offer better efficacy and manageable safety, the EWOC-based CRM method may be used to explore higher doses. All enrolled subjects will receive long-term treatment with the test drug and undergo evaluations for safety, tolerability, and preliminary efficacy.
After obtaining certain research data from the dose-escalation phase, the investigator may comprehensively consider safety, efficacy, and other information to decide whether to enroll additional subjects at the MTD and/or lower dose levels to determine the recommended Phase II dose (RP2D). Two to four suitable dosing regimens will be selected for expansion in the target population (including subjects enrolled at the target dose levels during the escalation phase).
A total of 8 dose groups were established: 10 mg bid, 20 mg bid, 40 mg bid, 80 mg bid, 40 mg qd, 80 mg qd, 160 mg qd, and 240 mg qd.
The dose expansion phase was conducted in the following 3 cohorts: • Cohort 1: Subjects with chronic phase (CP) chronic myeloid leukemia (CML) who had previously received at least ≥2 different TKIs and were T315I-negative. A total of 3 dose groups were established: 40 mg qd, 80 mg qd, and 240 mg qd; • Cohort 2: Subjects with chronic phase (CP) chronic myeloid leukemia (CML) who have previously received ≥1 TKI and were T315I-positive. A total of 2 dose groups were established: 40 mg qd and 240 mg qd; • Cohort 3: Subjects with accelerated phase (AP) chronic myeloid leukemia (CML) who have previously received ≥1 TKI, regardless of T315I positivity. A total of 1 dose group was established: 240 mg qd.

[2] = system: K562-luc human leukemia cells; experiment: Pharmacodynamic study in animal model inoculated via the carotid artery with K562-luc cells (brain metastasis model); conditions: 50 mg/kg p.o. qd
Procedure: K562-luc tumor cells were cultured in IMDM medium containing 10% fetal bovine serum and 1500 ng/mL puromycin in an incubator at 37°C with 5% CO2. The medium was replaced every 2 to 3 days. The cells were subcultured when the confluence reaches 80% - 90%. Tumor cells in the logarithmic growth phase were used for in vivo tumor inoculation.
Test animals: NCG mice, 6-8 weeks old, female, all handled according to SOP. The animals were housed in an SPF facility accredited by AAALAC (Association for Assessment and Accreditation of Laboratory Animal Care), in a constant-temperature and constant-humidity laminar flow clean room, using individually ventilated cages (IVC). […]
The mouse was placed supine on a neck surgery board with the upper incisors hooked and both forelimbs abducted and fixed. […] Tumor growth was monitored once weekly using an in vivo imaging system. […]
For routine monitoring, not only tumor growth but also behavioral changes of the animals were observed, including animal movement, food and water consumption (by cage-side observation), body weight changes, whether the eyes/hair were glossy, and any other abnormal effects. Any deaths and/or clinical signs of abnormalities were recorded. […]
Statistical analysis: Statistical analysis between groups was performed using SPSS 16.0 software. Mean and standard error were calculated for all measured parameters according to the experimental design. […]

[3] = CML-AP subjects previously treated with ponatinib, olverembatinib, asciminib, and/or HS-10382, as of June 2, 2024
[4] = CML-AP subjects, all doses, 44 evaluable, as of August 24, 2023
[5] = CML-AP subjects, 42 evaluable, as of June 2, 2024
[6] = CML-AP subjects, as of August 24, 2023
[7] = CML-AP subjects, as of June 2, 2024
[8] = CML-AP, failed or intolerant to third or above generations of TKI therapy
[9] = CML-AP, failed or intolerant to third or above generations of TKI therapy, 28 evaluable
[10] = CML-AP, failed or intolerant to third or above generations of TKI therapy, Kaplan-Meier method
[11] = CML-AP, 10 mg BID, 1 evaluable subject, as of August 24, 2023
[12] = CML-AP, 20 mg BID, 3 evaluable subjects, as of August 24, 2023
[13] = CML-AP, 40 mg BID, 4 evaluable subjects, as of August 24, 2023
[14] = CML-AP, 40 mg QD, 2 evaluable subjects, as of August 24, 2023
[15] = CML-AP, 40 mg/day Total, 5 evaluable subjects, as of August 24, 2023
[16] = CML-AP, 80 mg BID, 0 evaluable subjects, as of August 24, 2023
[17] = CML-AP, 80 mg QD, 4 evaluable subjects, as of August 24, 2023
[18] = CML-AP, 80 mg/day Total, 8 evaluable subjects, as of August 24, 2023
[19] = CML-AP, 160 mg QD, 3 evaluable subjects, as of August 24, 2023
[20] = CML-AP, 160 mg/day Total, 3 evaluable subjects, as of August 24, 2023
[21] = CML-AP, 240 mg QD, 27 evaluable subjects, as of August 24, 2023
[22] = CML-AP, Total, all dose groups, 44 evaluable subjects, as of August 24, 2023

O=C(Nc1ccc(OC(F)(F)Cl)cc1)c1cnc(N2CC[C@@H](F)C2)c(-c2cnccn2)c1 [Compound A, (R)-N-(4-(chlorodifluoromethoxy)phenyl)-6-(3-fluoropyrrolidin-1-yl)-5-(pyrazin-2-yl)nicotinamide]
18-month cumulative incidence rate of CCyR [1, 3]: 17%
18-month cumulative incidence rate of MCyR [1, 3]: 23%
CCyR [1, 4]: 18.2%
MCyR [1, 4]: 34.1%
MMR [1, 4]: 4.5%
MaHR ([1]; CML-AP subjects, all doses, 46 evaluable, as of August 24, 2023): 84.8%
CHR within 3 treatment cycles [1, 5]: 79%
MaHR within 3 treatment cycles [1, 5]: 83%
median time to MCyR [1, 6]: 2.76 (0.95, 5.52) months
median time to MMR [1, 6]: 5.54 (2.79, 8.28) months
18-month cumulative incidence of CCyR [1, 7]: 30%
18-month cumulative incidence of MCyR [1, 7]: 35%
18-month cumulative incidence of MMR [1, 7]: 14%
median EFS [1, 8]: 8.41 months
median PFS [1, 8]: not reached
median duration of MaHR response [1, 8]: not reached
median time to achieve CCyR [1, 8]: 5.59 (4.16, 6.92) months
median time to achieve MCyR [1, 8]: 2.69 (2.69, 5.55) months
CCyR [1, 9]: 14.3%
MCyR [1, 9]: 25.0%
MMR [1, 9]: 3.6%
MaHR [1, 9]: 78.6%
12-month EFS rate [1, 10]: 42.5%
12-month PFS rate [1, 10]: 79.9%
CCyR [1, 11]: 0 n (%)
MCyR [1, 11]: 0 n (%)
MMR [1, 11]: 0 n (%)
MaHR [1, 11]: 1 (100) n (%)
CCyR [1, 12]: 1 (33.3) n (%)
MCyR [1, 12]: 1 (33.3) n (%)
MMR [1, 12]: 0 n (%)
MaHR [1, 12]: 3 (100) n (%)
CCyR [1, 13]: 0 n (%)
MCyR [1, 13]: 1 (25.0) n (%)
MMR [1, 13]: 0 n (%)
MaHR [1, 13]: 3 (75.0) n (%)
CCyR [1, 14]: 0 n (%)
MCyR [1, 14]: 1 (50.0) n (%)
MMR [1, 14]: 0 n (%)
MaHR [1, 14]: 1 (50.0) n (%)
CCyR [1, 15]: 1 (20.0) n (%)
MCyR [1, 15]: 2 (40.0) n (%)
MMR [1, 15]: 0 n (%)
MaHR [1, 15]: 4 (80.0) n (%)
CCyR [1, 16]: 0 n (%)
MCyR [1, 16]: 0 n (%)
MMR [1, 16]: 0 n (%)
MaHR [1, 16]: 0 n (%)
CCyR [1, 17]: 0 n (%)
MCyR [1, 17]: 0 n (%)
MMR [1, 17]: 0 n (%)
MaHR [1, 17]: 3 (75.0) n (%)
CCyR [1, 18]: 0 n (%)
MCyR [1, 18]: 1 (12.5) n (%)
MMR [1, 18]: 0 n (%)
MaHR [1, 18]: 6 (75.0) n (%)
CCyR [1, 19]: 0 n (%)
MCyR [1, 19]: 1 (33.3) n (%)
MMR [1, 19]: 0 n (%)
MaHR [1, 19]: 3 (100) n (%)
CCyR [1, 20]: 0 n (%)
MCyR [1, 20]: 1 (33.3) n (%)
MMR [1, 20]: 0 n (%)
MaHR [1, 20]: 3 (100) n (%)
CCyR [1, 21]: 7 (25.9) n (%)
MCyR [1, 21]: 11 (40.7) n (%)
MMR [1, 21]: 2 (7.4) n (%)
MaHR ([1]; CML-AP, 240 mg QD, 29 evaluable subjects, as of August 24, 2023): 25 (86.2) n (%)
CCyR [1, 22]: 8 (18.2) n (%)
MCyR [1, 22]: 15 (34.1) n (%)
MMR [1, 22]: 2 (4.5) n (%)
MaHR ([1]; CML-AP, Total, all dose groups, 46 evaluable subjects, as of August 24, 2023): 39 (84.8) n (%)
BLI signal intensity of brain tumors (fluorescent signal) ([2]; day 28 after dosing, versus control group, Fig. 8): significantly inhibited
body weight loss ([2]; during the treatment period): did not show significant body weight loss
